Measurements published in PubChem BioAssay AID1963834 (Molecular Pharmacology Branch, DTP, NCI, 2024).

Tested on: 873145-292-R-J1-PDC complex spheroid viability
Test: Anticancer human tumor 873145-292-R-J1-PDC patient-derived renal clear cell carcinoma cell line growth inhibition [POLQ]
Conditions: for IC50: curve of first compound; for viability, T/C: stronger effect = lower value
Outline: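 Patient-derived tumour cells were co-cultured with HUVEC and mesenchymal stem cells as multicellular spheroids at 37 °C. They were treated with POLQ inhibitors (novobiocin, ART-558, RP6685) alone or combined with other agents. Top concentrations were at or near clinical Cmax (otherwise 10 microM; SN-38 at 1 microM), decreasing in half-log steps.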

[1] = second compound 0.0316 µM, first compound 0.0316 µM
[2] = second compound 0.0316 µM, first compound 0.1 µM
[3] = second compound 0.1 µM, first compound 0.0316 µM
[4] = second compound 0.1 µM, first compound 0.1 µM
[5] = second compound 0.316 µM, first compound 0.0316 µM
[6] = second compound 0.316 µM, first compound 0.1 µM
[7] = second compound 1 µM, first compound 0.0316 µM
[8] = second compound 1 µM, first compound 0.1 µM
[9] = second compound 3.16 µM, first compound 0.0316 µM
[10] = second compound 3.16 µM, first compound 0.1 µM
[11] = second compound 10 µM, first compound 0.0316 µM
[12] = second compound 10 µM, first compound 0.1 µM
[13] = second compound 0.0316 µM, first compound 0.316 µM
[14] = second compound 0.0316 µM, first compound 1 µM
[15] = second compound 0.0316 µM, first compound 3.16 µM
[16] = second compound 0.0316 µM, first compound 10 µM
[17] = second compound 0.1 µM, first compound 0.316 µM
[18] = second compound 0.1 µM, first compound 1 µM
[19] = second compound 0.1 µM, first compound 3.16 µM
[20] = second compound 0.1 µM, first compound 10 µM
[21] = second compound 0.316 µM, first compound 0.316 µM
[22] = second compound 0.316 µM, first compound 1 µM
[23] = second compound 0.316 µM, first compound 3.16 µM
[24] = second compound 0.316 µM, first compound 10 µM
[25] = second compound 1 µM, first compound 0.316 µM
[26] = second compound 1 µM, first compound 1 µM
[27] = second compound 1 µM, first compound 3.16 µM
[28] = second compound 1 µM, first compound 10 µM
[29] = second compound 3.16 µM, first compound 0.316 µM
[30] = second compound 3.16 µM, first compound 1 µM
[31] = second compound 3.16 µM, first compound 3.16 µM
[32] = second compound 3.16 µM, first compound 10 µM
[33] = second compound 10 µM, first compound 0.316 µM
[34] = second compound 10 µM, first compound 1 µM
[35] = second compound 10 µM, first compound 3.16 µM
[36] = second compound 10 µM, first compound 10 µM
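Note: spheroids exposed to compounds for 7 days before viability readout.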
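Throughout, for viability, T/C: luminescence signal used as surrogate for viable cell content; 100% = DMSO vehicle control viability.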

Cn1ncnc1[C@H]1c2n[nH]c(=O)c3cc(F)cc(c23)N[C@@H]1c1ccc(F)cc1 + COC1C(OC(N)=O)C(O)C(Oc2ccc3c(O)c(NC(=O)c4ccc(O)c(CC=C(C)C)c4)c(=O)oc3c2C)OC1(C)C
IC50 (second compound 0.0316 µM): > 100 nM
IC50 (second compound 0.1 µM): > 100 nM
IC50 (second compound 0.316 µM): > 100 nM
IC50 (second compound 1 µM): > 100 nM
IC50 (second compound 3.16 µM): > 100 nM
IC50 (second compound 10 µM): > 100 nM
viability, T/C (second compound 0.0316 µM, first compound 0.000316 µM): 98.5%
viability, T/C (second compound 0.0316 µM, first compound 0.001 µM): 102%
viability, T/C (second compound 0.0316 µM, first compound 0.00316 µM): 87.2%
viability, T/C (second compound 0.0316 µM, first compound 0.01 µM): 94.8%
viability, T/C [1]: 102%
viability, T/C [2]: 95.9%
viability, T/C (second compound 0.1 µM, first compound 0.000316 µM): 101%
viability, T/C (second compound 0.1 µM, first compound 0.001 µM): 102%
viability, T/C (second compound 0.1 µM, first compound 0.00316 µM): 96.2%
viability, T/C (second compound 0.1 µM, first compound 0.01 µM): 85.9%
viability, T/C [3]: 99.5%
viability, T/C [4]: 84.2%
viability, T/C (second compound 0.316 µM, first compound 0.000316 µM): 102%
viability, T/C (second compound 0.316 µM, first compound 0.001 µM): 98.7%
viability, T/C (second compound 0.316 µM, first compound 0.00316 µM): 102%
viability, T/C (second compound 0.316 µM, first compound 0.01 µM): 93.1%
viability, T/C [5]: 94.8%
viability, T/C [6]: 91.6%
viability, T/C (second compound 1 µM, first compound 0.000316 µM): 103%
viability, T/C (second compound 1 µM, first compound 0.001 µM): 99.3%
viability, T/C (second compound 1 µM, first compound 0.00316 µM): 95.6%
viability, T/C (second compound 1 µM, first compound 0.01 µM): 103%
viability, T/C [7]: 94.5%
viability, T/C [8]: 89.8%
viability, T/C (second compound 3.16 µM, first compound 0.000316 µM): 101%
viability, T/C (second compound 3.16 µM, first compound 0.001 µM): 97.7%
viability, T/C (second compound 3.16 µM, first compound 0.00316 µM): 108%
viability, T/C (second compound 3.16 µM, first compound 0.01 µM): 89.3%
viability, T/C [9]: 98.8%
viability, T/C [10]: 99.3%
viability, T/C (second compound 10 µM, first compound 0.000316 µM): 98.9%
viability, T/C (second compound 10 µM, first compound 0.001 µM): 95%
viability, T/C (second compound 10 µM, first compound 0.00316 µM): 104%
viability, T/C (second compound 10 µM, first compound 0.01 µM): 90.9%
viability, T/C [11]: 95.2%
viability, T/C [12]: 94.9%

Nc1ccn(C2OC(CO)C(O)C2(F)F)c(=O)n1 (stereo unspecified) + COC1C(OC(N)=O)C(O)C(Oc2ccc3c(O)c(NC(=O)c4ccc(O)c(CC=C(C)C)c4)c(=O)oc3c2C)OC1(C)C
IC50 (second compound 0.0316 µM): > 10000 nM
IC50 (second compound 0.1 µM): 1090 nM
IC50 (second compound 0.316 µM): 243 nM
IC50 (second compound 1 µM): 1280 nM
IC50 (second compound 3.16 µM): 360 nM
IC50 (second compound 10 µM): > 10000 nM
viability, T/C [1]: 59.6%
viability, T/C [2]: 46.6%
viability, T/C [13]: 52.2%
viability, T/C [14]: 46.5%
viability, T/C [15]: 54.8%
viability, T/C [16]: 50.9%
viability, T/C [3]: 51.2%
viability, T/C [4]: 57.5%
viability, T/C [17]: 53.7%
viability, T/C [18]: 44.2%
viability, T/C [19]: 51%
viability, T/C [20]: 43.5%
viability, T/C [5]: 60.8%
viability, T/C [6]: 52.9%
viability, T/C [21]: 47.8%
viability, T/C [22]: 48.3%
viability, T/C [23]: 51.4%
viability, T/C [24]: 46%
viability, T/C [7]: 57.8%
viability, T/C [8]: 54.8%
viability, T/C [25]: 52.7%
viability, T/C [26]: 48.8%
viability, T/C [27]: 49.6%
viability, T/C [28]: 48.4%
viability, T/C [9]: 61.7%
viability, T/C [10]: 60.2%
viability, T/C [29]: 50.3%
viability, T/C [30]: 43.6%
viability, T/C [31]: 50.7%
viability, T/C [32]: 52.5%
viability, T/C [11]: 59.2%
viability, T/C [12]: 52.4%
viability, T/C [33]: 52.2%
viability, T/C [34]: 45.6%
viability, T/C [35]: 53.6%
viability, T/C [36]: 53.1%

O=C(c1cc(Cc2n[nH]c(=O)c3ccccc23)ccc1F)N1CCN(C(=O)C2CC2)CC1 + COC1C(OC(N)=O)C(O)C(Oc2ccc3c(O)c(NC(=O)c4ccc(O)c(CC=C(C)C)c4)c(=O)oc3c2C)OC1(C)C
IC50 (second compound 0.0316 µM): > 10000 nM
IC50 (second compound 0.1 µM): > 10000 nM
IC50 (second compound 0.316 µM): > 10000 nM
IC50 (second compound 1 µM): > 10000 nM
IC50 (second compound 3.16 µM): > 10000 nM
IC50 (second compound 10 µM): > 10000 nM
viability, T/C [1]: 112%
viability, T/C [2]: 94.8%
viability, T/C [13]: 106%
viability, T/C [14]: 97.2%
viability, T/C [15]: 109%
viability, T/C [16]: 103%
viability, T/C [3]: 117%
viability, T/C [4]: 94.9%
viability, T/C [17]: 90.8%
viability, T/C [18]: 96.2%
viability, T/C [19]: 92.6%
viability, T/C [20]: 100%
viability, T/C [5]: 106%
viability, T/C [6]: 97.5%
viability, T/C [21]: 93.2%
viability, T/C [22]: 90.8%
viability, T/C [23]: 103%
viability, T/C [24]: 93.2%
viability, T/C [7]: 94.5%
viability, T/C [8]: 104%
viability, T/C [25]: 100%
viability, T/C [26]: 87.2%
viability, T/C [27]: 101%
viability, T/C [28]: 103%
viability, T/C [9]: 108%
viability, T/C [10]: 107%
viability, T/C [29]: 106%
viability, T/C [30]: 94.2%
viability, T/C [31]: 99.5%
viability, T/C [32]: 96.2%
viability, T/C [11]: 88%
viability, T/C [12]: 103%
viability, T/C [33]: 96.3%
viability, T/C [34]: 92.2%
viability, T/C [35]: 107%
viability, T/C [36]: 97.2%
